# Source: patent US11759455B2, “Substituted 1H-imidazo[4,5-b]pyridin-2(3H)-ones and their use as GLUN2B receptor modulators” (JANSSEN PHARMACEUTICA NV, priority 2016, dated 2023)
# Target: T1, human GluN1/GluN2B NMDA receptors (Homo sapiens, UniProt Q13224)
# T1 construct: expressed in transfected cells
# Assay: Cell-based calcium flux (FLIPR) assay on cloned human NR1/NR2B ion channels expressed in mammalian cells (standard and HTS buffer variants);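 also: stable Tet-On inducible cell line, Ca2+ influx triggered by glutamate at about EC40 plus 10 µM glycine, fluorescent dye read-out over 5 min, normalized to control wells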
# Details: standard assay buffer (0.5 mM MgCl2 in dye loading buffer; 137 mM NaCl, 4 mM KCl in assay buffer), human GluN1/GluN2B, read-out: NR2B IC50 (μM) standard assay
# T1 sequence (Q13224 27-1484, other chains not shown): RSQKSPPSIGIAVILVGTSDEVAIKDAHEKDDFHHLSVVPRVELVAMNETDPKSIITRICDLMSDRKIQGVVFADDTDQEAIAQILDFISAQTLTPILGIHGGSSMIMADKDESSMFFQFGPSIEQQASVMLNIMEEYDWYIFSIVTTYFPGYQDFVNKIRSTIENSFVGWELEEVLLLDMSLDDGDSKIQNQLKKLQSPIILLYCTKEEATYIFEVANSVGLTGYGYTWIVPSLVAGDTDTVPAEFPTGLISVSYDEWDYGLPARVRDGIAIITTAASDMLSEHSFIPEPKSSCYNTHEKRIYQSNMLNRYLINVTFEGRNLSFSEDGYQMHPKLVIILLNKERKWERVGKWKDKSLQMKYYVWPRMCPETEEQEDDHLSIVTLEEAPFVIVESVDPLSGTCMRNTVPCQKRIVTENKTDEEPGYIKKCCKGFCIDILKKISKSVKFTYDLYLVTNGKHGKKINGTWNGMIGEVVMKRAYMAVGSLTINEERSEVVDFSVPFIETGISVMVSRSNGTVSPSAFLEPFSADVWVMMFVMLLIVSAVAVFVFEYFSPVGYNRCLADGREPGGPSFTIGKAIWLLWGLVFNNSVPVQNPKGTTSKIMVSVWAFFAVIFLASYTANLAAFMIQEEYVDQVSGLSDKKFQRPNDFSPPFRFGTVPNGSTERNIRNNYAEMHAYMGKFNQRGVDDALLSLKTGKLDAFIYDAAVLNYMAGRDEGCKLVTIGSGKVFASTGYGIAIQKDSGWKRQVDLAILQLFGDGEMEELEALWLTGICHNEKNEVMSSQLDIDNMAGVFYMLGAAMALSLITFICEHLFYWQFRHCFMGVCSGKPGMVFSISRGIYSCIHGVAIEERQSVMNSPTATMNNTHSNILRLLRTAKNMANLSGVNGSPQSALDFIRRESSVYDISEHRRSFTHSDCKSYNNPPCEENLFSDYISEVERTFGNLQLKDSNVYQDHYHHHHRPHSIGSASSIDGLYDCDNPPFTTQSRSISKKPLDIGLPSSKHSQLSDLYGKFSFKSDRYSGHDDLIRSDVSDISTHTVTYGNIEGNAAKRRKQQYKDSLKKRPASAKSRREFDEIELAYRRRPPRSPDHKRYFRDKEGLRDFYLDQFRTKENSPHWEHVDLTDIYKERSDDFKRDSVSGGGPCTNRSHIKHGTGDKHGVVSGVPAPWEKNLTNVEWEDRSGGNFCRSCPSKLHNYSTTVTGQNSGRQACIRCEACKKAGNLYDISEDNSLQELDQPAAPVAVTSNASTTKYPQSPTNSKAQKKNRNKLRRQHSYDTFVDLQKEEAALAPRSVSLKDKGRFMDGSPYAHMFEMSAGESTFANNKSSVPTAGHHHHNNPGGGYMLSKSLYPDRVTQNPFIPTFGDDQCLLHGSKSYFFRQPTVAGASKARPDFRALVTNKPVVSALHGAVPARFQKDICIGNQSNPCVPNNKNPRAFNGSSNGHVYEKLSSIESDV
row,SMILES,IC50 [µM]
1,"Cn1c(=O)n(CC(=O)N2CC(F)C2)c2cc(-c3ccc(F)c(F)c3)cnc21 [Example 403, 6-(3,4-Difluorophenyl)-1-[2-(3-fluoroazetidin-1-yl)-2-oxo-ethyl]-3-methyl-imidazo[4,5-b]pyridin-2-one]",0.042
2,"Cn1c(=O)n(CC(=O)N2CC(F)C2)c2cc(-c3cccc(Cl)c3)cnc21 [Example 406, 6-(3-Chlorophenyl)-1-[2-(3-fluoroazetidin-1-yl)-2-oxo-ethyl]-3-methyl-imidazo[4,5-b]pyridin-2-one]",0.016
3,"Cn1c(=O)n(CC(=O)N2CC(F)C2)c2cc(-c3ccc(F)c(C(F)(F)F)c3)cnc21 [Example 407, 1-[2-(3-Fluoroazetidin-1-yl)-2-oxo-ethyl]-6-[4-fluoro-3-(trifluoromethyl)phenyl]-3-methyl-imidazo[4,5-b]pyridin-2-one]",0.031
4,"Cn1c(=O)n(CC(=O)N2CCC2)c2cc(-c3cccc(C(F)(F)F)c3)cnc21 [Example 408, 1-[2-(Azetidin-1-yl)-2-oxo-ethyl]-3-methyl-6-[3-(trifluoromethyl)phenyl]imidazo[4,5-b]pyridin-2-one]",0.042
5,"Cn1c(=O)n(CC(=O)N2CCC2)c2cc(-c3cc(F)cc(F)c3)cnc21 [Example 412, 1-[2-(Azetidin-1-yl)-2-oxo-ethyl]-6-(3,5-difluorophenyl)-3-methyl-imidazo[4,5-b]pyridin-2-one]",0.027
6,"Cc1c(F)ccc(-c2cnc3c(c2)n(CC(=O)N2CC(F)(F)C2)c(=O)n3C)c1F [Example 414, 1-[2-(3,3-Difluoroazetidin-1-yl)-2-oxo-ethyl]-6-(2,4-difluoro-3-methyl-phenyl)-3-methyl-imidazo[4,5-b]pyridin-2-one]",0.013
7,"Cn1c(=O)n(CC(=O)N2CC(F)(F)C2)c2cc(-c3cccc(C(F)(F)F)c3F)cnc21 [Example 415, 1-[2-(3,3-Difluoroazetidin-1-yl)-2-oxo-ethyl]-6-[2-fluoro-3-(trifluoromethyl)phenyl]-3-methyl-imidazo[4,5-b]pyridin-2-one]",0.015

# The next lines start with the values.
row,IC50 [µM],SMILES
1,0.016,"Cc1cc(-c2cnc3c(c2)n(CC(=O)N2CC(F)C2)c(=O)n3C)ccc1F [Example 401, 1-[2-(3-Fluoroazetidin-1-yl)-2-oxo-ethyl]-6-(4-fluoro-3-methyl-phenyl)-3-methyl-imidazo[4,5-b]pyridin-2-one]"
2,0.016,"Cn1c(=O)n(CC(=O)N2CC(F)C2)c2cc(-c3cc(F)c(F)c(F)c3)cnc21 [Example 402, 1-[2-(3-Fluoroazetidin-1-yl)-2-oxo-ethyl]-3-methyl-6-(3,4,5-trifluorophenyl)imidazo[4,5-b]pyridin-2-one]"
3,0.05,"Cc1cccc(-c2cnc3c(c2)n(CC(=O)N2CC(F)C2)c(=O)n3C)c1 [Example 404, 1-[2-(3-Fluoroazetidin-1-yl)-2-oxo-ethyl]-3-methyl-6-(m-tolyl)imidazo[4,5-b]pyridin-2-one]"
4,0.022,"Cc1cccc(-c2cnc3c(c2)n(CC(=O)N2CC(F)C2)c(=O)n3C)c1F [Example 405, 1-[2-(3-Fluoroazetidin-1-yl)-2-oxo-ethyl]-6-(2-fluoro-3-methyl-phenyl)-3-methyl-imidazo[4,5-b]pyridin-2-one]"
5,0.008,"Cc1c(F)ccc(-c2cnc3c(c2)n(CC(=O)N2CCC2)c(=O)n3C)c1F [Example 409, 1-[2-(Azetidin-1-yl)-2-oxo-ethyl]-6-(2,4-difluoro-3-methyl-phenyl)-3-methyl-imidazo[4,5-b]pyridin-2-one]"
6,0.014,"Cn1c(=O)n(CC(=O)N2CCC2)c2cc(-c3cc(F)c(F)c(F)c3)cnc21 [Example 411, 1-[2-(Azetidin-1-yl)-2-oxo-ethyl]-3-methyl-6-(3,4,5-trifluorophenyl)imidazo[4,5-b]pyridin-2-one]"
7,0.009,"Cc1cc(-c2cnc3c(c2)n(CC(=O)N2CC(F)(F)C2)c(=O)n3C)ccc1F [Example 413, 1-(2-(3,3-Difluoroazetidin-1-yl)-2-oxoethyl)-6-(4-fluoro-3-methylphenyl)-3-methyl-1H-imidazo[4,5-b]pyridin-2(3H)-one]"
